Like-named read-outs stand apart in the source and are kept apart here.
Assay: PK of compound of Formula (Ia) after single subcutaneous dose of solution formulations in Wistar Han rats
Type: in vivo
Conditions: male, Wistar Han, rat, plasma, sc, 50 mg/kg; for concentration at 2688 h / concentration at 3024 h / concentration at 3360 h / concentration at 3696 h / concentration at 4032 h / concentration at 4704 h: Wistar Han rats, SC 50 mg/kg, 500 mg/mL solution X (5.00% ethanol, 1.91% poloxamer 188); for AUC(0-t): male Wistar Han rats, single SC 50 mg/kg, mean ± SD
Experimental: Formulations containing the compound of Formula (Ia), or a pharmaceutically acceptable salt thereof, were prepared as solutions and optionally administered subcutaneously or intramuscularly to rats, rabbits, and/or dogs.
(§1) A solution of about 400 mg/mL of the compound of Formula (Ia) having 19.14 w/w % water, 40.66 w/w % PEG 300, 35.20 w/w % of a sodium salt of a compound of Formula (Ia), and 5.00% ethanol was prepared. The solution was administered subcutaneously to male Wistar Han rats at a dose level of about 50 mg/kg and dose volume of 0.125 mL/kg and the pharmacokinetic (PK) profile was determined.
as §1, with “500” for “400”, “16.64” for “19.14”, “35.36” for “40.66”, “43.00” for “35.20”, “0.1” for “0.125”
(§2) A solution of about 400 mg/mL of the compound of Formula (Ia) having 17.00 w/w % water, 36.40 w/w % PEG 300, 35.20 w/w % of a sodium salt of a compound of Formula (Ia), 5.00 w/w % ethanol, and 6.40 w/w % poloxamer 188 was prepared. The solution was administered subcutaneously to male beagle dogs at a dose level of about 12 mg/kg and male Wistar Han rats at a dose level of about 50 mg/kg. The pharmacokinetic profiles were determined, and the results for dogs are summarized in Table and Table, while the results for rats are summarized in Table and Table below.
as §2, with “500” for “400”, “14.06” for “17.00”, “30.12” for “36.40”
A solution of about 300 mg/mL of the compound of Formula (Ia) having 23.33 w/w % water, 48.99 w/w % PEG 300, 26.47 w/w % of a sodium salt of a compound of Formula (Ia), and 1.21 w/w % poloxamer 188 was prepared. The solution was administered subcutaneously to male beagle dogs at a dose level of about 6 mg/kg and male Wistar Han rats at a dose level of about 50 mg/kg. The pharmacokinetic profiles were determined, and the results for dogs are summarized in Table and Table, while the results for rats are summarized in Table and Table below.
as §2, with “18.80” for “17.00”, “40.25” for “36.40”, “34.38” for “35.20”, “1.57” for “6.40”
as §2, with “500” for “400”, “16.29” for “17.00”, “34.88” for “36.40”, “41.92” for “35.20”, “1.91” for “6.40”
A solution of about 400 mg/mL of the compound of Formula (Ia) having 20.90 w/w % water, 44.72 w/w % PEG 300, and 34.38 w/w % of a sodium salt of a compound of Formula (Ia) was prepared. […]

Compound CC(C)(C#Cc1ccc(-c2ccc(Cl)c3c(NS(C)(=O)=O)nn(CC(F)(F)F)c23)c([C@H](Cc2cc(F)cc(F)c2)NC(=O)Cn2nc(C(F)(F)F)c3c2C(F)(F)[C@@H]2C[C@H]32)n1)S(C)(=O)=O [compound of Formula (Ia)] has a concentration at 2688 h (Mean n = 3) of 168 nM, a concentration at 2688 h (animals #1-#3) of 141 nM and a concentration at 3024 h (Mean n = 3) of 161 nM. For the same compound, the concentration at 3024 h (animals #1-#3) was 127 nM, the concentration at 3360 h (Mean n = 3) was 157 nM and the concentration at 3360 h (animals #1-#3) was 122 nM. For the same compound, the concentration at 3696 h (Mean n = 3) was 134 nM, the concentration at 3696 h (animals #1-#3) was 121 nM and the concentration at 4032 h (Mean n = 3) was 135 nM. For the same compound, the concentration at 4032 h (animals #1-#3) was 97.5 nM, the concentration at 4704 h (Mean n = 3) was 88.8 nM and the concentration at 4704 h (animals #1-#3) was 79.4 nM. The AUC(0-t) (400 mg/mL solution AA (6.25% poloxamer 188), n = 4, read-out: AUC0-24 h) was 3.44 ± 0.69 µM·h, the AUC(0-t) (400 mg/mL solution AA (6.25% poloxamer 188), n = 4, read-out: AUC0-168 h) was 32.4 ± 7.6 µM·h and the AUC(0-t) (400 mg/mL solution AA (6.25% poloxamer 188), n = 4, read-out: AUC0-336 h) was 55.2 ± 16.3 µM·h. It also gave an AUC(0-t) (400 mg/mL solution AA (6.25% poloxamer 188), n = 4, read-out: AUC0-672 h) of 98 ± 30.4 µM·h, an AUC(0-t) (400 mg/mL solution AA (6.25% poloxamer 188), n = 4, read-out: AUC0-1008 h) of 136 ± 36 µM·h and an AUC(0-t) (400 mg/mL solution AA (6.25% poloxamer 188), n = 4, read-out: AUC0-1344 h) of 167 ± 41 µM·h. It also gave an AUC(0-t) (400 mg/mL solution AA (6.25% poloxamer 188), n = 4, read-out: AUC0-2352 h) of 190 ± 45 µM·h, an AUC(0-t) (400 mg/mL solution AA (6.25% poloxamer 188), n = 4, read-out: AUC0-3024 h) of 240 ± 59 µM·h and an AUC(0-t) (400 mg/mL solution AA (6.25% poloxamer 188), n = 4, read-out: AUC0-3696 h) of 289 ± 76 µM·h. The AUC(0-t) (400 mg/mL solution W (5.00% ethanol, 1.57% poloxamer 188), n = 3, read-out: AUC0-24 h) was 2 ± 0.58 µM·h, the AUC(0-t) (400 mg/mL solution W (5.00% ethanol, 1.57% poloxamer 188), n = 3, read-out: AUC0-168 h) was 21.6 ± 4.5 µM·h and the AUC(0-t) (400 mg/mL solution W (5.00% ethanol, 1.57% poloxamer 188), n = 3, read-out: AUC0-336 h) was 45.9 ± 11.9 µM·h. It also gave an AUC(0-t) (400 mg/mL solution W (5.00% ethanol, 1.57% poloxamer 188), n = 3, read-out: AUC0-672 h) of 124 ± 32 µM·h, an AUC(0-t) (400 mg/mL solution W (5.00% ethanol, 1.57% poloxamer 188), n = 3, read-out: AUC0-1008 h) of 215 ± 45 µM·h and an AUC(0-t) (400 mg/mL solution W (5.00% ethanol, 1.57% poloxamer 188), n = 3, read-out: AUC0-1344 h) of 306 ± 65 µM·h. It also gave an AUC(0-t) (400 mg/mL solution W (5.00% ethanol, 1.57% poloxamer 188), n = 3, read-out: AUC0-1680 h) of 401 ± 86 µM·h, an AUC(0-t) (400 mg/mL solution W (5.00% ethanol, 1.57% poloxamer 188), n = 3, read-out: AUC0-2352 h) of 540 ± 114 µM·h and an AUC(0-t) (400 mg/mL solution W (5.00% ethanol, 1.57% poloxamer 188), n = 3, read-out: AUC0-3024 h) of 647 ± 126 µM·h. It also gave an AUC(0-t) (400 mg/mL solution W (5.00% ethanol, 1.57% poloxamer 188), n = 3, read-out: AUC0-3696 h) of 730 ± 131 µM·h, an AUC(0-t) (400 mg/mL solution W (5.00% ethanol, 1.57% poloxamer 188), n = 3, read-out: AUC0-4704 h) of 765 ± 131 µM·h and an AUC(0-t) (400 mg/mL solution Y (water, PEG 300), n = 4, read-out: AUC0-24 h) of 1.66 ± 0.32 µM·h. The AUC(0-t) (400 mg/mL solution Y (water, PEG 300), n = 4, read-out: AUC0-168 h) was 15.7 ± 4.7 µM·h.
